# Results from patent publication US20080318931A1, “Treatment of Disorders and Diseases of the Colon” (priority 2004, published 2008).
# System: DSS-induced acute colitis
# Assay: Rat model of DSS-induced acute colitis
# Assay type: in vivo
# Details: for number of days with significant DAI difference vs control: 9 days in water-treated DSS group
# Experimental: Potential anti-IBD effect of two different doses of paroxetine, namely 0.2% and 0.4% was assessed in the rat model of DSS-induced acute colitis (DSS—dextran sulfate sodium). The use of DSS is a well-defined method for the induction of colitis' in animals. DSS can be controlled more precisely regarding molecular weight distribution, grade of sulfate incorporation and impurities than other agents typically used to achieve the same clinical end-point. This reagent model is suitable for screening of new drugs as it uses small animals, the oral administration of the agent is convenient to use in large groups of animals and the induced colitis responds to treatment with conventional drugs (see for example Axelsson et al, 1993).
# Paroxetine (oral suspension, protected from light at or below 25° C.) was administered at two respective doses of 7.5 and 15 mg/kg by one daily repeated oral gavage (PO) for 16 days. Colitis induction commenced two days following initiation of treatment by continuous exposure ad libitum of the test animals to 3% DSS (36-50 kDa) in their drinking water (chlorinated and acidified, pH range of 5.1-5.9, freshly prepared on even test days). […] Two additional paroxetine-treated non-DSS induced groups were likewise treated with the same selected does to detect any unforeseen paroxetine related effects. Test groups comprised either n=8 (DSS induced) or n=4 (non-DSS induced) male Sprague Dawley (SD) rats (healthy, young […] weeks of age, total of 36 animals).
# Evaluation of anti-IBD effect was based on the following […] parameters: a. Daily clinical scoring of the characteristic experimental colitis signs, consisting of body weight loss, altered fecal consistency and hematochezia and expressed as Disease Activity Index (DAI); b. Body weight determination; c. Colon length; d. Macroscopic colon lesions scores noted at necropsy; and e. microscopic colon lesions score.
# The histological scoring system for the 3% DSS-induced colonic inflammation is shown below in Tables 1 and 2:
# Final data evaluation was carried out by statistical analysis of differences between mean group values for each of the above listed parameters in the DSS-induced groups vs. respective mean values in the water-treated non-DSS induced group.
structure (smiles),measurement,setting,value
Fc1ccc([C@@H]2CCNC[C@H]2COc2ccc3c(c2)OCO3)cc1 [paroxetine],mean body weight vs respective control,"both doses (7.5 and 15 mg/kg PO), DSS-induced",did not reach statistical significance
same,mean colon length vs water-treated non-DSS induced group,"both doses, p<0.05",significantly shorter
same,medians of histopathological scores (lateral and in-depth extension),"both doses, differences not statistically significant",lower than for the control group
same,day of peak DAI score,both paroxetine-treated DSS-induced groups,10 days
same,mean macroscopic colon score vs control,high dose,did not significantly differ
same,number of days with significant DAI difference vs control,high paroxetine dose,6 days
same,mortality,high-dose (15 mg/kg PO) DSS-induced group,No mortality
same,mean macroscopic colon score vs control,"low dose, p<0.01",significantly higher
same,number of days with significant DAI difference vs control,low paroxetine dose,5 days
same,overall anti-IBD effect,"oral suspension, 7.5 and 15 mg/kg",trend of anti-IBD effect with a dose-response
same,mortality,"the dose paroxetine-treated DSS-induced group, n=8, PO daily 16 days",one
